Results taken from patent US20080090805A1, “CB-1 MODULATING COMPOUNDS AND THEIR USE” (ACADIA PHARMACEUTICALS INC., priority 2005, published 2008).
Like-named read-outs stand apart in the source and are kept apart here.

Target: CB1 (mutant) (Homo sapiens, UniProt P21554)
Test: R-SAT functional receptor assay, CB1 (mutant, truncated after amino acid 417)
Format: cell-based
Details: R-SAT CB1; for IC50 / pIC50: receptor form (mutant or wild-type) not stated; for Emax / % Inhibition: receptor form not stated, relative to SR141716 (100%)
[1] = Appendix A, read-out: pIC50 (converted)
[2] = Appendix A, read-out: % Inhibition

Chain of CB1 (mutant) (P21554 1-417, change not shown): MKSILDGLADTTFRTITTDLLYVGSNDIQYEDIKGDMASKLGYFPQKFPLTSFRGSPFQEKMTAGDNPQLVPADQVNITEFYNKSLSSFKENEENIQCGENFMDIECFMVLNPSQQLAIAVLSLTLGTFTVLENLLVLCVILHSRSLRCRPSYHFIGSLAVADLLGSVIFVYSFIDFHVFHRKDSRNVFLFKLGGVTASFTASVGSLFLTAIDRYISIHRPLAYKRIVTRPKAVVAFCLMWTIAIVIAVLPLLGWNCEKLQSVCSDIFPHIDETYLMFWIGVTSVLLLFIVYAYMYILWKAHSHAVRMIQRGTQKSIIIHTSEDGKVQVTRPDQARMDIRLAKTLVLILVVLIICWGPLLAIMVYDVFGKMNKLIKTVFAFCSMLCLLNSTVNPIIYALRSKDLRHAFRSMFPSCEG

Row | IC50 [1] | Emax [2] | Structure (SMILES) | other results
1 | 6.31 nM | 104% | O=C(NCc1ccco1)c1ccc2c(c1)N=C(c1ccc(F)cc1)c1ccccc1S2 [drawing 689] | 
2 | 6.31 nM | 97% | O=C(NCc1ccco1)c1ccc2c(c1)N=C(c1ccc(Cl)c(Cl)c1)c1ccccc1S2 [drawing 691] | 
3 | 63.1 nM | 121% | Cc1ccsc1C1=Nc2cc(C(=O)NCCc3cccnc3)ccc2Sc2ccccc21 [drawing 694] | 
4 | 79.4 nM | 105% | O=C(NCc1ccncc1)c1ccc2c(c1)N=C(c1ccc(Cl)cc1)c1ccccc1S2 [drawing 696] | 
5 | 79.4 nM | 100% | O=C(NN1CCCC1)c1ccc2c(c1)N=C(c1ccc(Cl)cc1)c1ccccc1S2 [drawing 698] | 
6 | 79.4 nM | 83% | O=C(NCc1ccccc1Br)c1ccc2c(c1)N=C(c1ccccc1)c1ccccc1S2 [drawing 700] | 
7 | 7.94 nM | 103% | O=C(NCc1cccc(Cl)c1)c1ccc2c(c1)N=C(c1ccc(F)cc1)c1ccccc1S2 [drawing 701] | 
8 | 79.4 nM | 96% | O=C(NC1CCCC1)c1ccc2c(c1)N=C(c1cccc(Cl)c1)c1ccccc1S2 [drawing 702] | 
9 | 7.94 nM | 117% | CC(C)CNC(=O)c1ccc2c(c1)N=C(c1ccc(Cl)s1)c1ccc(F)cc1S2 [drawing 703] | 
10 | 7.94 nM | 104% | COc1cccc(C2=Nc3cc(C(=O)NCCC(F)(F)F)ccc3Sc3ccccc32)n1 [drawing 707] | 
11 | 7.94 nM | 101% | CCCCNC(=O)c1ccc2c(c1)N=C(c1ccc(F)cn1)c1ccccc1S2 [drawing 709] | 
12 | 7.94 nM | 113% | CC(C)CNC(=O)c1ccc2c(c1)N=C(c1ccc(F)cn1)c1ccccc1S2 [drawing 711] | 
13 | 79.4 nM | 106% | COc1ccc(C2=Nc3cc(C(=O)NCc4cccnc4)ccc3Sc3ccccc32)cc1 [drawing 712] | 
14 | 79.4 nM | 101% | O=C(NCc1ccncc1)c1ccc2c(c1)N=C(c1ccc(F)cc1)c1ccccc1S2 [drawing 716] | 
15 | 7.94 nM | 106% | O=C(NCc1ccccc1)c1ccc2c(c1)N=C(c1cccc(Cl)c1)c1ccccc1S2 [drawing 717] | 
16 | 7.94 nM | 113% | CCCCNC(=O)c1ccc2c(c1)N=C(c1cccc(F)c1)c1ccccc1S2 [drawing 719] | 
17 | 7.94 nM |  | O=C(NN1CCCCCC1)c1ccc2c(c1)N=C(c1cccc(Cl)c1)c1ccccc1S2 [drawing 721] | % Inhibition (Appendix A): 105%
18 | 7.94 nM | 120% | C[C@@H]1CCC[C@H](C)N1NC(=O)c1ccc2c(c1)N=C(c1cccc(F)c1)c1ccccc1S2 [drawing 727] | 
19 | 79.4 nM | 105% | COc1ccc(C2=Nc3cc(C(=O)NCc4ccncc4)ccc3Sc3ccccc32)cc1 [drawing 728] | 
20 | 7.94 nM | 101% | CC(CNC(=O)c1ccc2c(c1)N=C(c1ccccc1)c1ccccc1S2)c1ccccc1 (stereo not drawn) [drawing 729] | 
21 | 79.4 nM | 99% | COc1ccc(C2=Nc3cc(C(=O)NN4[C@H](C)CCC[C@@H]4C)ccc3Sc3ccccc32)cc1 [drawing 730] | 
22 | 79.4 nM | 80% | Cc1csc(CNC(=O)c2ccc3c(c2)N=C(c2ccc(F)cc2)c2ccccc2S3)c1 [drawing 732] | 
23 | 7.94 nM | 108% | O=C(NCCc1ccc(Cl)cc1)c1ccc2c(c1)N=C(c1ccccc1)c1ccccc1S2 [drawing 733] | 

Continued, compound first:

Row | Structure (SMILES) | IC50 [1] | Emax [2] | other results
24 | CC(C)CNC(=O)c1ccc2c(c1)N=C(c1ccc(Cl)c(Cl)c1)c1ccccc1S2 [drawing 643] | 5.01 nM | 108% | 
25 | O=C(NCCCc1ccccc1)c1ccc2c(c1)N=C(c1ccc(Cl)cc1)c1ccccc1S2 [drawing 645] |  | 106% | IC50 (pIC50, Appendix A): 5.01 nM
26 | O=C(NCc1ccccc1)c1ccc2c(c1)N=C(c1ccc(Cl)cc1)c1ccccc1S2 [drawing 647] | 5.01 nM | 105% | 
27 | O=C(NCc1cccc(Cl)c1)c1ccc2c(c1)N=C(N1CCCCC1)c1cc(F)ccc1S2 [drawing 649] | 5.01 nM | 107% | 
28 | O=C(NCc1cccc(Cl)c1)c1ccc2c(c1)N=C(c1cccc(Cl)c1)c1cc(F)ccc1S2 [drawing 651] | 5.01 nM | 107% | 
29 | Cc1ccsc1C1=Nc2cc(C(=O)NC3CCCC3)ccc2Sc2ccccc21 [drawing 652] | 63.1 nM | 81% | 
30 | COc1cccc(C2=Nc3cc(C(=O)NC4CCC(F)(F)CC4)ccc3Sc3ccccc32)n1 [drawing 653] |  | 104% | IC50 (pIC50, Appendix A): 6.31 nM
31 | Cc1csc(CNC(=O)c2ccc3c(c2)N=C(c2ccc(Cl)s2)c2ccccc2S3)c1 [drawing 655] | 6.31 nM | 94% | 
32 | CCCCNC(=O)c1ccc2c(c1)N=C(c1ccc(Cl)cc1)c1sccc1S2 [drawing 657] | 6.31 nM | 122% | 
33 | O=C(NC1CCC(F)(F)CC1)c1ccc2c(c1)N=C(c1cccc(F)c1)c1ccccc1S2 [drawing 659] | 6.31 nM | 77% | 
34 | O=C(NN1CCCCC1)c1ccc2c(c1)N=C(c1ccc(F)cn1)c1ccccc1S2 [drawing 660] | 63.1 nM | 92% | 
35 | Cc1csc(CNC(=O)c2ccc3c(c2)N=C(c2sccc2C)c2ccccc2S3)c1 [drawing 661] | 6.31 nM | 102% | 
36 | O=C(NCCC(F)(F)F)c1ccc2c(c1)N=C(c1ccc(Cl)s1)c1ccccc1S2 [drawing 663] | 6.31 nM | 95% | 
37 | CC(C)NC(=O)c1ccc2c(c1)N=C(c1ccc(Cl)cc1F)c1ccccc1S2 [drawing 664] | 63.1 nM | 101% | 
38 | CCCCNC(=O)c1ccc2c(c1)N=C(c1ccc(Cl)c(Cl)c1)c1ccccc1S2 [drawing 665] |  |  | Emax (read-out: % Inhibition, Appendix A): 109%
39 | CCCCNC(=O)c1ccc2c(c1)N=C(c1ccc(Cl)cc1)c1ccccc1[S+]2[O-] (stereo not drawn) [drawing 666] | 63.1 nM | 97% | 
40 | O=C(NCCC(F)(F)F)c1ccc2c(c1)N=C(c1ccc(Cl)cc1F)c1ccccc1S2 [drawing 667] | 6.31 nM | 100% | 
41 | O=C(NCc1cccnc1)c1ccc2c(c1)N=C(c1ccc(Cl)c(Cl)c1)c1ccccc1S2 [drawing 669] | 6.31 nM | 107% | 
42 | O=C(NCc1cccc(Cl)c1)c1ccc2c(c1)N=C(c1ccc(F)cc1)c1ccccc1[S+]2[O-] (stereo not drawn) [drawing 670] |  | 89% | 
43 | CC(C)CCNC(=O)c1ccc2c(c1)N=C(c1cccc(F)c1)c1ccccc1S2 [drawing 671] |  | 100% | IC50 (pIC50, Appendix A): 6.31 nM
44 | O=C(NC1CCCC1)c1ccc2c(c1)N=C(c1ccc(Cl)c(Cl)c1)c1ccccc1S2 [drawing 672] | 63.1 nM | 95% | 
45 | O=C(NCCc1ccc(Cl)cc1)c1ccc2c(c1)N=C(c1ccc(F)cc1)c1ccccc1S2 [drawing 673] | 6.31 nM | 107% | 

Row | Structure (SMILES) | IC50 [1] | Emax [2] | other results
46 | CC(NC(=O)c1ccc2c(c1)N=C(C1CCCCC1)c1ccccc1S2)c1ccccc1 (stereo not drawn) [drawing 674] |  |  | pIC50 (Appendix A): 7.2; % Inhibition (Appendix A): 113%
47 | CCCNC(=O)c1ccc2c(c1)N=C(c1ccc(Cl)s1)c1ccccc1S2 [drawing 675] | 6.31 nM | 88% | 
48 | CCOC(=O)N1CCC(NC(=O)c2ccc3c(c2)N=C(c2ccc(Cl)cc2)c2ccccc2S3)CC1 [drawing 676] | 63.1 nM |  | % Inhibition (Appendix A): 105%
49 | CC(C)CNC(=O)c1ccc2c(c1)N=C(c1ccc(F)cc1)c1ccccc1S2 [drawing 677] | 6.31 nM | 107% | 
50 | O=C(NNCC(F)(F)F)c1ccc2c(c1)N=C(c1cccc(Cl)c1)c1ccccc1S2 [drawing 678] | 63.1 nM | 99% | 
51 | O=C(NCc1cccc(Cl)c1)c1ccc2c(c1)N=C(N1CCC(F)CC1)c1ccccc1S2 [drawing 679] | 6.31 nM | 108% | 
52 | O=C(NN1CCCCC1)c1ccc2c(c1)N=C(c1ccc(F)cc1)c1ccccc1S2 [drawing 680] |  | 84% | 
53 | O=C(NCc1ccccc1)c1ccc2c(c1)N=C(N1CCCCC1)c1ccccc1S2 [drawing 681] | 6.31 nM | 110% | 
54 | CCCCNC(=O)c1ccc2c(c1)N=C(N1CCCCC1)c1ccccc1S2 [drawing 683] | 6.31 nM | 99% | 
55 | Cc1ccsc1C1=Nc2cc(C(=O)NC(C)C)ccc2Sc2ccccc21 [drawing 684] | 63.1 nM | 95% | 
56 | Cc1ccsc1C1=Nc2cc(C(=O)NCc3cccs3)ccc2Sc2ccccc21 [drawing 685] | 6.31 nM | 114% | 
57 | O=C(NCc1cccnc1)c1ccc2c(c1)N=C(c1ccc(Cl)c(Cl)c1)c1ccccc1S2 [drawing 687] |  |  | pIC50 (Appendix A): 8.2; % Inhibition (Appendix A): 114%
58 | O=C(NCc1ccco1)c1ccc2c(c1)N=C(c1cccc(F)c1)c1ccccc1S2 [drawing 693] |  | 104% | IC50 (pIC50, Appendix A): 6.31 nM
59 | O=C(NN1CCCCCC1)c1ccc2c(c1)N=C(c1cccc(F)c1)c1ccccc1S2 [drawing 697] |  | 106% | IC50 (pIC50, Appendix A): 7.94 nM
60 | O=C(NC1CCC(F)(F)CC1)c1ccc2c(c1)N=C(c1cccc(Cl)c1)c1ccccc1S2 [drawing 699] |  | 91% | IC50 (pIC50, Appendix A): 7.94 nM
61 | O=C(NCCC(F)(F)F)c1ccc2c(c1)N=C(c1ccc(Cl)cc1)c1ccccc1S2 [drawing 705] |  | 91% | IC50 (pIC50, Appendix A): 7.94 nM
62 | CCN(CCNC(=O)c1ccc2c(c1)N=C(c1cccc(Cl)c1)c1ccccc1S2)c1ccccc1 [drawing 713] |  | 97% | IC50 (pIC50, Appendix A): 7.94 nM
63 | O=C(NCc1ccc(F)cc1)c1ccc2c(c1)N=C(c1cccc(Cl)c1)c1ccccc1S2 [drawing 715] |  | 97% | IC50 (pIC50, Appendix A): 7.94 nM
64 | O=C(NC1CCCC1)c1ccc2c(c1)N=C(c1ccc(F)cc1)c1ccccc1S2 [drawing 720] |  | 117% | IC50 (pIC50, Appendix A): 79.4 nM
65 | O=C(NN1CCCCC1)c1ccc2c(c1)N=C(c1cccc(Br)c1)c1ccccc1S2 [drawing 723] |  | 92% | IC50 (pIC50, Appendix A): 7.94 nM
66 | O=C(NCCc1ccccc1)c1ccc2c(c1)N=C(c1cccc(Cl)c1)c1ccccc1S2 [drawing 731] |  | 104% | IC50 (pIC50, Appendix A): 7.94 nM
